Measurements as given in ChEMBL document CHEMBL1201862, “PubChem BioAssay data set” (2004).
Active and inactive are the calls of the source.

How the values were obtained:
[1] = molecular target: T1, Corticotropin-releasing factor receptor 2/Corticotropin-releasing factor-binding protein (Homo sapiens, UniProt P24387+Q13324); experiment: Dose Response confirmation of uHTS hits for small molecule antagonists of the CRF-binding protein and CRF-R2 receptor complex.; type: functional; conditions: read-out: IC50_Mean
T1 sequence (Q13324 whole entry): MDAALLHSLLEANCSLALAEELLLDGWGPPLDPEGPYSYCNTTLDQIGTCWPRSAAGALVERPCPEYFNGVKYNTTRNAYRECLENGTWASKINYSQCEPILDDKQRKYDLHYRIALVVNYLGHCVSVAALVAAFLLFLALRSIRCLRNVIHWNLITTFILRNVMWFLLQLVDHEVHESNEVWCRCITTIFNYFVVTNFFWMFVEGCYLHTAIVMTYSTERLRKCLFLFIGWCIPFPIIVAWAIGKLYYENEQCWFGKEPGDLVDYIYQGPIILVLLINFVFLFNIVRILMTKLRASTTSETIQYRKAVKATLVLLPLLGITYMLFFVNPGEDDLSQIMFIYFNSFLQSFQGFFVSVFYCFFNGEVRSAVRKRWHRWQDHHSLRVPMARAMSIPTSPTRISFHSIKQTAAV
T1 sequence (P24387 whole entry): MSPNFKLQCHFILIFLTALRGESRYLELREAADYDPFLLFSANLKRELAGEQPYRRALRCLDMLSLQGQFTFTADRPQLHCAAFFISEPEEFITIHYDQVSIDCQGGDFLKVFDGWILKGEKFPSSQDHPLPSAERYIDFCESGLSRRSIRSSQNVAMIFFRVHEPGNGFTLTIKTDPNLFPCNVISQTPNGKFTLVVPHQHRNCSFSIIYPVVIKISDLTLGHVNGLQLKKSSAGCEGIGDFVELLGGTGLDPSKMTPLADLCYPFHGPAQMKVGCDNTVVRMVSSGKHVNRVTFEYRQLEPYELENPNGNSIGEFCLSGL

[2] = molecular target: T1, Corticotropin-releasing factor receptor 2/Corticotropin-releasing factor-binding protein; experiment: activators of CRF receptor 2 with binding protein – uHTS hits, confirmation (AID 602473); type: functional; conditions: read-out: EC50_Mean
Paired box protein Pax-8 = Paired box protein Pax-8 (Homo sapiens, UniProt Q06710); experiment: inhibitors of PAX8-driven TPO luciferase reporter, dose response, RMG-I cells, cherry-pick (AID 687027); type: functional, cell-based;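 further: luciferase reporter driven by Pax8 target thyroperoxidase promoter measured by SteadyGlo luminescence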
[3] = molecular target: T2, Polyadenylate-binding protein 1 (Homo sapiens, UniProt P11940); experiment: PABP1 MLLE–PAM2 interaction inhibitors, dose response, miRNA deadenylation inhibitor project, biochemical, fluorescence polarization, Cy5-PAM2 peptide, secondary (AID 602260); type: functional; conditions: read-out: IC50_Mean
[4] = molecular target: T2, Polyadenylate-binding protein 1; experiment: PABP1 MLLE–PAM2 binding inhibitor potency, dose response, biochemical, fluorescence polarization, FITC-PAM2 peptide (AID 602259); type: functional; conditions: read-out: IC50_Mean
[5] = molecular target: T3, Heat shock factor protein 1 (Mus musculus, UniProt P38532); experiment: HSF1 potentiators in luciferase reporter cells, confirmation, cell-based, NIH3T3, luminescence, dose retest (AID 435004); type: functional;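 further: stress induced by proteasome inhibitor MG132 added 30 min after compound; luciferase reporter driven by HSF1 response element in NIH3T3 cells; actives raise luminescence as potentiators of the MG132 stress response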
T3 sequence (P38532 whole entry): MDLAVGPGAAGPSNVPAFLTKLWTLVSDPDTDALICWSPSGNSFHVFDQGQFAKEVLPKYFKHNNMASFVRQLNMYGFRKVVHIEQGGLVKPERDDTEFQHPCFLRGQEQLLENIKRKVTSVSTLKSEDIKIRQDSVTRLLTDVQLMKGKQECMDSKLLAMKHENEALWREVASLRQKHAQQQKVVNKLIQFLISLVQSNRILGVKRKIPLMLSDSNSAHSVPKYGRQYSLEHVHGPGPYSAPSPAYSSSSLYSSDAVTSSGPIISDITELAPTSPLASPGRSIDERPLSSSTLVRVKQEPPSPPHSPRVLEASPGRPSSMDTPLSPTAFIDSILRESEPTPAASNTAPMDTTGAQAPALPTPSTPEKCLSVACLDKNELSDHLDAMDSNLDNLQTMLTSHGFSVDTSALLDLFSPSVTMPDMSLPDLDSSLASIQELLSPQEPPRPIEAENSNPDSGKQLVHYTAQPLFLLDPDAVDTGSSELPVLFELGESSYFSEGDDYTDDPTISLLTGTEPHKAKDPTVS

H9c2 = experiment: cells; type: functional, cell-based; conditions: Rattus norvegicus, H9c2, Myocardium;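 further: confirmatory concentration-response retest of ultra-high-throughput screening hits for modulation of myocardial damage; cell death induced by hydrogen peroxide oxidative stress; compound pretreatment for 60 min then peroxide exposure for 2 h; potency is for protecting the cells against peroxide damage rather than for killing them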
Protein RecA = molecular target: T4, Protein RecA (Mycobacterium tuberculosis, UniProt P9WHJ3); experiment: Fluorescence Cell-Free Homogeneous Dose Retest to Identify Inhibitors of RecA-Intein Splicing Activity. [Related pubchem assays (depositor defined):AID2097, AID2223, AID489010, AID492950]; type: functional
T4 sequence (P9WHJ3 whole entry): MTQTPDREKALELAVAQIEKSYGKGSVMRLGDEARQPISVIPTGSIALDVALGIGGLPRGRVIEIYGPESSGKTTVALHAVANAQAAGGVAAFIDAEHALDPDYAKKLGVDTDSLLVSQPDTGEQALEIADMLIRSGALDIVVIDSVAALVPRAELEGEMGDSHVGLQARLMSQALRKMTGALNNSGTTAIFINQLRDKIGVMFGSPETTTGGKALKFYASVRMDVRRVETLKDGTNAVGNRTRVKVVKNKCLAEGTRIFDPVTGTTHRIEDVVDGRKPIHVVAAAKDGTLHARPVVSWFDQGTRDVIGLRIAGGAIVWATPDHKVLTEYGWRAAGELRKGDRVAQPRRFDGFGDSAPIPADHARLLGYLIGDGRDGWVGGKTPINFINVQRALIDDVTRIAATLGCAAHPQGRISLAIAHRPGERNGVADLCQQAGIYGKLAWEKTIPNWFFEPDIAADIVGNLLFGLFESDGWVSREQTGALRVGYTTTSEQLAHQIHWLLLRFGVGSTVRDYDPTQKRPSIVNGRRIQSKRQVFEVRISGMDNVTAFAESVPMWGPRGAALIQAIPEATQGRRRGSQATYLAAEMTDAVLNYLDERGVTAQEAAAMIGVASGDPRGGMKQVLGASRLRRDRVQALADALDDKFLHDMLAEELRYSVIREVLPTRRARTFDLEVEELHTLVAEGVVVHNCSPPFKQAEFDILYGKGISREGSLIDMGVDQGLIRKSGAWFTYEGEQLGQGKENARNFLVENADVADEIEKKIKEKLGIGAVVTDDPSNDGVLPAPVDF

[6] = Luminescence Cell-Based Dose Confirmation HTS to Identify Activators of 5'UTR Stem-Loop Driven Alpha-Synuclein mRNA Translation in H4 Neuroglioblastoma Cells. [Related pubchem assays: 1829 (Project Summary), 1814 (Primary HTS)]; type: functional
H4 = experiment: Luminescence Cell-Based Dose Response HTS to Identify Activators of 5'UTR Stem-Loop Driven Prion Protein mRNA Translation in H4 Neuroglioblastoma Cells. [Related pubchem assays: 1829 (Project Summary), 1814 (Primary HTS)]; type: functional; conditions: Homo sapiens
[7] = Luminescence Cell-Based Dose Response HTS to Identify Activators of Luciferase Translation or Activity in H4 […] Cells. [Related pubchem assays: 1829 (Project Summary), 1814 (Primary HTS)]; type: functional

Chain of Paired box protein Pax-8 (Q06710 whole entry): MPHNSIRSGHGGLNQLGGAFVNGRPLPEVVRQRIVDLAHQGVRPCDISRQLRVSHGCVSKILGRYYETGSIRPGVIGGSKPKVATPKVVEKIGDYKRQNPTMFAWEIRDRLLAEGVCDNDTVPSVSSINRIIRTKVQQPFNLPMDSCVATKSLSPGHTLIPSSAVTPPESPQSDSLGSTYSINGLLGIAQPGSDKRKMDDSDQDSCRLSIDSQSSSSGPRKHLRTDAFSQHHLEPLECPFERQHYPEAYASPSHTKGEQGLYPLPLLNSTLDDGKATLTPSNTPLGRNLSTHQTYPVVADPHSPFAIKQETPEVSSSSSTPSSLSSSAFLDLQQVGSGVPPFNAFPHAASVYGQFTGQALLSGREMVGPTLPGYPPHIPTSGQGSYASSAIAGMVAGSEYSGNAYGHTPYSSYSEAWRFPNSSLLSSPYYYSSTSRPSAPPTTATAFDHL
T2 sequence (P11940 whole entry): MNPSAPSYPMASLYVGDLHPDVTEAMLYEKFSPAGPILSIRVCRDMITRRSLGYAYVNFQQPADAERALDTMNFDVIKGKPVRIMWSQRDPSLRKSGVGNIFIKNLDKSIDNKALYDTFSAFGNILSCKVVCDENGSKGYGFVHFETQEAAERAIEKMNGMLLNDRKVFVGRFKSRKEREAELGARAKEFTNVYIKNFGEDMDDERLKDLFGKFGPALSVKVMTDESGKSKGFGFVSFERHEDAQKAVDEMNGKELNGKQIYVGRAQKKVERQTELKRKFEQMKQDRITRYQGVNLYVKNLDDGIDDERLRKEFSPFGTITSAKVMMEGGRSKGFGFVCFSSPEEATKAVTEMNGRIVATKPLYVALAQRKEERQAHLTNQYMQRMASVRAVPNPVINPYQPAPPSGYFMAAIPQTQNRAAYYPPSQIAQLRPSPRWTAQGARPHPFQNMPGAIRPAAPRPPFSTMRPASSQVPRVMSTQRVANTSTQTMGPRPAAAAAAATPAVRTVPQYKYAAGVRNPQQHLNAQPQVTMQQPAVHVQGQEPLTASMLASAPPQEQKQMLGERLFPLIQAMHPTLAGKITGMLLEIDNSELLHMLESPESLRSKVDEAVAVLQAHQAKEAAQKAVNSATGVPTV

Structure (SMILES): COc1ccccc1C(=O)NC(CCSC)C(=O)NC1CCCCCC1 (stereo unspecified)
- IC50 [1]: > 47.1 µM (inactive)
- EC50 [2]: > 53 µM (inactive)

Structure (SMILES): COc1ccc(S(=O)(=O)N(C)C[C@H]2Oc3ccc(NC(=O)Nc4ccc(C(F)(F)F)cc4)cc3C(=O)N([C@H](C)CO)C[C@@H]2C)cc1
- AC50 (Paired box protein Pax-8): 8.69 µM (active)

Structure (SMILES): O=c1ccc2cc(S(=O)(=O)NCc3ccccc3)ccc2[nH]1
- IC50 [1]: > 47.1 µM (inactive)
- EC50 [2]: > 53 µM (inactive)

Structure (SMILES): COc1ccc(OC)c(NC(=O)CSC2=NCCS2)c1
- IC50 [3]: > 66 µM (inactive)
- IC50 [4]: > 66 µM (inactive)

Structure (SMILES): O=C(Nc1ccc(C(=O)N2CCOCC2)cc1)c1cnn2c(C(F)F)cc(-c3ccccc3)nc12
- EC50 [5]: > 260 µM (inactive)
- IC50 (H9c2): > 79 µM (inactive)

Structure (SMILES): CCCCCCCOC(=O)c1ccc(OC(=O)c2cccnc2)cc1
- EC50 (Protein RecA): > 380 µM (inconclusive)

Structure (SMILES): O=C(Nc1ccccc1)c1nc[nH]c1C(=O)NCCN(CCNC(=O)c1[nH]cnc1C(=O)Nc1ccccc1)CCNC(=O)c1[nH]cnc1C(=O)Nc1ccccc1
- IC50 [1]: > 47.1 µM (inactive)
- EC50 [2]: > 53 µM (inactive)

Structure (SMILES): O=C1NC2=C(C(=O)CCC2)C(c2ccccc2[N+](=O)[O-])N1 (stereo unspecified)
- IC50 [3]: > 66 µM (inactive)
- IC50 [4]: > 66 µM (inactive)

Structure (SMILES): CC1(C)CC2=NC(SCC(N)=O)=C(C#N)C3(CCCCC3)C2=C(O)C1
- IC50 [3]: > 66 µM (inactive)
- IC50 [4]: > 66 µM (inactive)

Structure (SMILES): c1coc(CSc2ncnc3c2oc2ccccc23)c1
- EC50 [6]: 3.52 µM (active)
- EC50 (H4): 6.38 µM (active)
- EC50 [7]: 4.94 µM (active)

Structure (SMILES): C[C@H](CO)N1C[C@H](C)[C@H](CN(C)S(=O)(=O)c2ccc(Cl)cc2)OCCCC[C@H](C)Oc2ccc(NS(=O)(=O)c3ccc(F)cc3)cc2C1=O
- AC50 (Paired box protein Pax-8): 9.43 µM (active)

Structure (SMILES): Cc1cc2c(NS(=O)(=O)c3ccc(F)cc3)cccc2nn1
- IC50 [1]: > 47.1 µM (inactive)
- EC50 [2]: > 53 µM (inactive)

Structure (SMILES): CC(=O)c1ccc(N2CCN(C(=O)CCS(=O)(=O)c3ccc4c(c3)CCN4C(C)=O)CC2)cc1
- IC50 [1]: > 47.1 µM (inactive)
- EC50 [2]: > 53 µM (inactive)

Structure (SMILES): CCOC(=O)c1ccc(-c2ccc3ncnc(NCc4csc(C)n4)c3c2)o1
- IC50 (H9c2): > 79 µM (inactive)

Structure (SMILES): CCOC(=O)c1sc(=S)n(C)c1NC(=O)c1ccccc1Cl
- IC50 [3]: > 66 µM (inactive)
- IC50 [4]: > 66 µM (inactive)

Structure (SMILES): COc1cc(/C=N/NC(=O)c2ccncc2)ccc1OC(=O)c1ccccc1Cl
- IC50 (H9c2): > 79 µM (inactive)

Structure (SMILES): Cc1cccc(C)c1N=C(S)Nc1ccc(Cl)c(Cl)c1
- IC50 [3]: > 66 µM (inactive)
- IC50 [4]: > 66 µM (inactive)

Structure (SMILES): CCC(=O)Nc1ccc(-c2ccc(N3CCN(C)CC3)nn2)cc1
- EC50 [6]: > 120 µM (not active)
- EC50 (H4): 19.2 µM (active)
- EC50 [7]: 15.5 µM (active)

Structure (SMILES): COc1ccc(CCNc2nc(-c3cccnc3)nc3ccccc23)cc1OC
- IC50 (H9c2): > 79 µM (inactive)

Structure (SMILES): C#CCNC(=O)C1=C[C@H](c2ccc3c(c2)OCO3)[C@@H](CCCO)[C@H](OCC)O1
- IC50 [1]: > 47.1 µM (inactive)
- EC50 [2]: > 53 µM (inactive)

Structure (SMILES): O=C(C[C@H]1C/C=C\CC[C@H](Cc2ccc(F)cc2)C(=O)O[C@H](c2ccccc2)CNC1=O)N[C@H](CO)Cc1ccccc1
- IC50 (H9c2): 25.3 µM (active)

Structure (SMILES): CCOc1ccc(C(=O)NNC(=O)CCNC(=O)c2ccco2)cc1OC
- IC50 [1]: > 47.1 µM (inactive)
- EC50 [2]: > 53 µM (inactive)

Structure (SMILES): Cn1c(SCC(=O)c2ccc3c(c2)OCCO3)nnc1C(F)(F)F
- IC50 [1]: > 47.1 µM (inactive)
- EC50 [2]: > 53 µM (inactive)

Structure (SMILES): c1ccc(-c2noc(C34CC5CC(CC(C5)C3)C4)n2)nc1
- EC50 [6]: 0.122 µM (active)
- EC50 (H4): 48 µM (active)
- EC50 [7]: 30.3 µM (active)

Structure (SMILES): Cc1ccc(C(=O)CSc2nc(O)c3ccccc3n2)cc1
- IC50 (H9c2): > 79 µM (inactive)

Structure (SMILES): O=C(/C=C/c1ccco1)N1CCN(c2ncccn2)CC1
- IC50 [3]: > 66 µM (inactive)
- IC50 [4]: > 66 µM (inactive)

Structure (SMILES): O=c1c(-c2ccc3c(c2)OCCO3)coc2c(CN3CCOCC3)c(O)ccc12
- EC50 [6]: 42.3 µM (active)
- EC50 (H4): > 120 µM (not active)
- EC50 [7]: 17.7 µM (active)

Structure (SMILES): Cc1cc(NC(=O)COC(=O)Cn2[nH]c(=O)c3ccccc3c2=O)c([N+](=O)[O-])cc1C
- IC50 (H9c2): 31.7 µM (inactive)

Structure (SMILES): Cc1cc2cc(CNC(=O)c3ccc(Br)o3)ccc2n1C
- IC50 [3]: > 66 µM (inactive)
- IC50 [4]: > 66 µM (inactive)

Structure (SMILES): C[C@@H]1CCCCO[C@@H](CN(C)Cc2ccc(Cl)c(Cl)c2)[C@H](C)CN([C@H](C)CO)C(=O)c2cc(NC(=O)Nc3ccccc3)ccc2O1
- AC50 (Paired box protein Pax-8): 12.5 µM (active)

Structure (SMILES): Fc1ccc(N2Cc3ccsc3C=N2)cc1
- EC50 [6]: 37.1 µM (active)
- EC50 (H4): > 120 µM (not active)
- EC50 [7]: 23.9 µM (active)

Structure (SMILES): Cc1ccc2nc(N3C(=O)C(O)=C(C(=O)c4ccc(C)o4)C3c3cccc(O)c3)sc2c1 (stereo unspecified)
- IC50 [1]: 7.83 µM (active)
- EC50 [2]: > 53 µM (inactive)

Structure (SMILES): O=C(CSc1nc(O)c2ccccc2n1)N1CCCCC1
- IC50 (H9c2): 10.5 µM (active)

Structure (SMILES): O=C(NNC(=S)Nc1ccc(Br)cc1Cl)c1ccncc1
- IC50 [3]: > 66 µM (inactive)
- IC50 [4]: > 66 µM (inactive)

Structure (SMILES): Cc1ccc(C)c(C(=O)COC(=O)Cn2[nH]c(=O)c3ccccc3c2=O)c1
- IC50 (H9c2): 63.5 µM (inactive)

Structure (SMILES): CCCC1c2ccc(C)n2CCN1C(=O)Nc1ccccc1Cl (stereo unspecified)
- EC50 [6]: 23 µM (active)
- EC50 (H4): > 120 µM (not active)
- EC50 [7]: 14.2 µM (active)
